Experiments:
SirT1 promoter = assay: ChIP analysis of SirT1 promoter occupancy in Kelly cells; format: cell-based, human; conditions: vs DMSO
Method: Correlations between gene mRNAs in DDL-214, -218, and -219-treated Kelly cells
As described in the main manuscript, human Kelly neuroblastoma cells were treated with
racemate DDL-214, and enantiomers DDL-218 and -219. Levels of PRMT5, NFYb, SirT1, and
PPP2r5e mRNAs were then determined. The correlations between these gene mRNAs for all
Data points are graphed by
treatment in Figure S6D-F and their significant correlation (Pearson correlation 0.914) in
bioinformatic analysis of gene co-expression of 2300 human brain RNAseq samples performed
at Genefriends.org (Raina, et al. (2022) GeneFriends: gene co-expression databases and tools
for humans and model organisms, Nucleic Acids Research, 2022;
Figure S6. Correlation of gene mRNA levels in DDL-treated Kelly cells. All data points are shown for (A)
PRMT5 vs. NFYb, (B) SirT1 vs. PRMT5, and (C) PPP2r5E vs. SirT1. R2 values are shown on the upper
right of each panel. (D-F) The same data with treatment (DDL-214, -218, or -219) indicated by symbols
shown below panel (E). The statistical 'r' value and significance determined by Pearsons Correlation
ChIP assay for SirT1 gene promoter occupancy by ApoE4 and RNA polymerase […]
promoter by ApoE4 or RNA Polymerase (RNAP) was determined using an EZ-ChIP kit (Millipore […]
DNA was purified. The immunoprecipitated DNA was measured for the level of immuno-captured […]

[1] = biological target: hERG (human Ether-a-go-go-Related Gene) (Homo sapiens, UniProt Q12809); assay: hERG
hERG (human Ether-a-go-go-Related Gene), sequence (Q12809 whole entry): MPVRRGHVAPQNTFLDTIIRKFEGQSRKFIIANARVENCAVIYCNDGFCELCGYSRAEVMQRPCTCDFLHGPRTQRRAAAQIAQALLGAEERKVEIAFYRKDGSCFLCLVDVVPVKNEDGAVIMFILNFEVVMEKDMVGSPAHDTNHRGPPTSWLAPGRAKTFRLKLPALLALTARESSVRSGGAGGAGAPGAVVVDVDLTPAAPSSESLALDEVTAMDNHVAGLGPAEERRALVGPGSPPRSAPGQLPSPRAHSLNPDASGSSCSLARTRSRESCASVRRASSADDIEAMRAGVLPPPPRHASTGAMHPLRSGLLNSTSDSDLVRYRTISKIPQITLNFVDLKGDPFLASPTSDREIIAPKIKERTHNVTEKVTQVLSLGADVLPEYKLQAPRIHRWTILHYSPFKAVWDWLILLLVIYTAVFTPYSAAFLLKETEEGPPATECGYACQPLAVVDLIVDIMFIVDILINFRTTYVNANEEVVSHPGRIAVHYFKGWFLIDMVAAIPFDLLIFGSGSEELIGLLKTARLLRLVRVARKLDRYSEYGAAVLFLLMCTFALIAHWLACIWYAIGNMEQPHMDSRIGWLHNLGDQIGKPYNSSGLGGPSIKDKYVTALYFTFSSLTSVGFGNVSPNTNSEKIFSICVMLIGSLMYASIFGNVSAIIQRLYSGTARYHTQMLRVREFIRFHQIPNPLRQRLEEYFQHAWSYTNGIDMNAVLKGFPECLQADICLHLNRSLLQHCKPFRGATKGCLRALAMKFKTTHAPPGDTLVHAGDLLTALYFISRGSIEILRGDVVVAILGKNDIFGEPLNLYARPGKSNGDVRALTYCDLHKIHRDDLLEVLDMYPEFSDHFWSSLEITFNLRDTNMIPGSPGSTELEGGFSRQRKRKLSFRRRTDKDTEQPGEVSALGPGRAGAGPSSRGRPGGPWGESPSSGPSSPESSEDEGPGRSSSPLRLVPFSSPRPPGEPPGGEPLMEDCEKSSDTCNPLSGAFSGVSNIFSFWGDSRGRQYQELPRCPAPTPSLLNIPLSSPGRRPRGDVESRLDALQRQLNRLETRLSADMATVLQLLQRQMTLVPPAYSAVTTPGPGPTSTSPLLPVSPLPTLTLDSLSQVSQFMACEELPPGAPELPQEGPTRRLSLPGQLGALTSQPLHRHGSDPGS

CC(N)C(=O)OC(C)(C)Cc1ccncc1 (stereo not drawn) [DDL-218]
ApoE4 binding to SirT1 promoter (SirT1 promoter): lower, but the effect was not significant | RNAP occupancy of SirT1 promoter (SirT1 promoter): increased | EC50 [1]: > 10 µM
